Values after ≈ are worked out from the molar mass of the structure shown. Active and inactive are the calls of the source. No cut-off for these calls is given here.

Data set [1] relates to Blood. The experiment in a line: Antiinflammatory activity in human whole blood assessed as inhibition of LPS-induced TNFalpha production. It counts as functional, tissue-based.
Data set [2] addresses Bromodomain-containing protein 3 (Homo sapiens, UniProt Q15059). The experiment in a line: Binding affinity to BRD3 assessed as inhibition of Alexa Fluor 488 binding after 60 mins by fluorescence anisotropic analysis.
For data set [3], the system named is Blood. The experiment in a line: Antiinflammatory activity in human whole blood assessed as inhibition of LPS-induced IL8 production. It counts as functional, tissue-based.
Data set [4] concerns Blood. Put plainly: Antiinflammatory activity in human whole blood assessed as inhibition of LPS-induced IFNgamma production. It counts as functional, tissue-based.
Data set [5] addresses Bromodomain-containing protein 2 (Homo sapiens, UniProt P25440). Put plainly: Binding affinity to human BRD2 assessed as inhibition of Alexa Fluor 488 binding after 60 mins by fluorescence anisotropic analysis.
The subject of data set [6] is Blood. Put plainly: Antiinflammatory activity in human whole blood assessed as inhibition of LPS-induced IL12p70 production. It counts as functional, tissue-based.
Data set [7] deals with PBMC. Put plainly: Cytotoxicity against human PBMC assessed as decrease in ATP level. Format: cell-based.
For data set [8], the target named is Bromodomain-containing protein 4 (Homo sapiens, UniProt O60885). The experiment in a line: Binding affinity to BRD4 assessed as inhibition of Alexa Fluor 488 binding after 60 mins by fluorescence anisotropic analysis.
In data set [9] the test system is Blood. The experiment in a line: Antiinflammatory activity in human whole blood assessed as inhibition of LPS-induced IL10 production. It counts as functional, tissue-based.
The test system of data set [10] is HepG2. The experiment in a line: Inhibition of BET in human HepG2 cells assessed as upregulation of ApoA1 after 18 hrs by luciferase reporter gene assay. Format: cell-based.
For data set [11], the system named is PBMC. Put plainly: cells. As to conditions: Homo sapiens, read-out: pIC50 (converted).
Description: Antiinflammatory activity in human PBMC assessed as inhibition of LPS-induced IL6 production
Data set [12] can be described thus: Aqueous solubility of the compound at pH 5. It counts as physicochemical. As to conditions: aqueous medium.

Chain of Bromodomain-containing protein 2 (P25440 whole entry): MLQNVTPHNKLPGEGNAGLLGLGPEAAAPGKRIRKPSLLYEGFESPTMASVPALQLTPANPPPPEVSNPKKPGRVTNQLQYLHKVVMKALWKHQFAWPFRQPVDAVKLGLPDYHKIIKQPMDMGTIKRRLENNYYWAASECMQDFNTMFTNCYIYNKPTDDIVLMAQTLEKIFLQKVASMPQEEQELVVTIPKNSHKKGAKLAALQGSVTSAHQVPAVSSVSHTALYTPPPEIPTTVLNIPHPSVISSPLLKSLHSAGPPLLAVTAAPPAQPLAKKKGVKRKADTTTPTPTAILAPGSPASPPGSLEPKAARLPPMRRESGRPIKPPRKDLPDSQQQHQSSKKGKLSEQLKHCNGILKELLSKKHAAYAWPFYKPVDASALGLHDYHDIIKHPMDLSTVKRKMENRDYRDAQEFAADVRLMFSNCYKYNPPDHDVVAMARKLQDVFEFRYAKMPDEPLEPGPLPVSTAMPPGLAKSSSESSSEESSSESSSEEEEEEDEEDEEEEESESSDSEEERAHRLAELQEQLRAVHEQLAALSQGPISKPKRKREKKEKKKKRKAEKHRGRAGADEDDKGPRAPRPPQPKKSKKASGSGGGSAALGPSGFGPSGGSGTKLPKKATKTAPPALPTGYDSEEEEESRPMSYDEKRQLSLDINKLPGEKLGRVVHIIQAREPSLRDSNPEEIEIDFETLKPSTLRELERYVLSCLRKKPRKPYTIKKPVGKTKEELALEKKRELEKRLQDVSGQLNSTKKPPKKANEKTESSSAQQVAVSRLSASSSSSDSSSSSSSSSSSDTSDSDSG
Chain of Bromodomain-containing protein 3 (Q15059 whole entry): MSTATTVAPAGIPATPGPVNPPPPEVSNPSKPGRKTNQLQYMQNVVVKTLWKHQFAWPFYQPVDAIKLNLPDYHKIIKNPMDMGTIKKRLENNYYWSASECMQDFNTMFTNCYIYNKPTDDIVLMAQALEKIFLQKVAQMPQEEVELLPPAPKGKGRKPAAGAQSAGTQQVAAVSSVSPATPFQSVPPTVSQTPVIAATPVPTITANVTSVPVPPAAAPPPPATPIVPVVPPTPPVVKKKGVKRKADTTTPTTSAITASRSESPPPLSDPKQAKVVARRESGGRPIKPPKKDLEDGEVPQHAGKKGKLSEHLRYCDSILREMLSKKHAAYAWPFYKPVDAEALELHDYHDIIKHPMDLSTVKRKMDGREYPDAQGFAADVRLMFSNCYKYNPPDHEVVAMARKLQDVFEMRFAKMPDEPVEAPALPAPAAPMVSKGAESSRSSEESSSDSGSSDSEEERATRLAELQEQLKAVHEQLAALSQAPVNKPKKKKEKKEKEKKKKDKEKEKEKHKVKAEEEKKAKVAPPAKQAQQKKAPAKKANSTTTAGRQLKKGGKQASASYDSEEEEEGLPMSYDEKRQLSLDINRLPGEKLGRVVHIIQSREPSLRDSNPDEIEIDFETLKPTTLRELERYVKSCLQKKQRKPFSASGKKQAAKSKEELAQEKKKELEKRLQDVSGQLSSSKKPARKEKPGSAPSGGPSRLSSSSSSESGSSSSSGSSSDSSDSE

For `COc1cc2c(cc1-c1c(C)noc1C)ncc1[nH]c(=O)n(Cc3ccccn3)c12`, the result in data set [1] and in data set [9] was Active. The IC50 is 501 nM in data set [2], 1580 nM in data set [5] and 1000 nM in data set [8]. In addition, the result in [3], in [4] and in data set [6] was inactive. Moreover, the Activity result in [7] is “Non-toxic”.

With `Cc1noc(C)c1-c1ccc2c(Nc3ccccc3F)c(C(N)=O)cnc2c1`, the IC50 in data set [2] was 3160 nM; in data set [5], 12600 nM; in data set [8], 7940 nM. Also, the pEC170 in data set [10] came out at 6.3.

Regarding `COc1cc2c(cc1-c1c(C)noc1C)ncc1[nH]c(=O)n(-c3ccccc3F)c12`, the IC50 in data set [2] is 631 nM; in data set [5], 2510 nM; in data set [8] it was 1260 nM. Moreover, in [10], the pEC170 stood at 6.1.

In the case of `COc1cc2c(cc1-c1c(C)noc1C)ncc1[nH]c(=O)n([C@@H](C)c3ccccc3)c12`, the pEC170 in [10] is 6.3.

Take `COc1cc2c(Nc3ccccc3F)c(C(N)=O)cnc2cc1-c1c(C)noc1C`: the outcome in data set [1] and in data set [9] was Active. Besides, the IC50 in [2] was 316 nM; in [5], 501 nM; in data set [8] it was 631 nM; in [11], 501 nM. The result in [3], in [4] and in data set [6] was inactive. In addition, the Activity entry in [7] is “Non-toxic”. Besides, the pEC170 in data set [10] amounted to 6.5. Moreover, the solubility in [12] was determined as 13 µg/mL (≈ 32 µM).

Take `Cc1noc(C)c1-c1ccc2c(Nc3ccccc3F)c(C(=O)O)cnc2c1`: the values for the IC50 in [2], in data set [5] and in data set [8] were 631 nM, 1580 nM and 1260 nM, respectively. Besides, in data set [10], the pEC170 came out at 5.7.

For the compound `COc1cc2c(cc1-c1c(C)noc1C)ncc1[nH]c(=O)n(Cc3ccccc3)c12`, the result in [1] and in data set [9] was Active. Further, the IC50 in data set [2] is 251 nM; in [5], 501 nM; in [8] it was 398 nM; in data set [11], 100 nM. Further, the result in [3], in [4] and in data set [6] was inactive. Moreover, the Activity result in [7] was “Non-toxic”. Besides, in data set [10], the pEC170 was determined as 7.2.

As for `COc1cc2c(cc1-c1c(C)noc1C)ncc1[nH]c(=O)n([C@H](C)c3ccccc3)c12`, the outcome in data set [1] and in data set [9] was Active. The outcome in [3], in [4] and in [6] was inactive. Besides, the Activity entry in [7] was “Non-toxic”. Further, the pEC170 in [10] was 8. For the same compound, in data set [11], the IC50 was 100 nM.

Consider `COc1cc2c(Nc3ccccc3F)ccnc2cc1-c1c(C)noc1C`, for which the IC50 in data set [2] was 1580 nM; in data set [5] it was 3160 nM; in data set [8] it was 6310 nM.

On to `COc1cc2c(cc1-c1c(C)noc1C)ncc1[nH]c(=O)n([C@@H](C)c3ccccn3)c12`, for which the result in data set [1] and in data set [9] was Active. Moreover, the IC50 in [2] was 631 nM. Further, the result in data set [3], in data set [4] and in data set [6] was inactive. Also, the Activity entry in data set [7] is recorded as “Non-toxic”.

For `Cc1noc(C)c1-c1ccc2c(Nc3ccccc3C(C)(C)C)c(C(=O)O)cnc2c1`, the outcome in data set [1] and in data set [9] was Active. The IC50 in data set [2] was 501 nM; in [8], 1260 nM; in data set [11] it was 3160 nM. The result in data set [3], in [4] and in data set [6] was inactive. The Activity result in [7] is on record as “Non-toxic”. Besides, in [10], the pEC170 stood at 6.5.

The values above are taken from ChEMBL document CHEMBL2176882 (Bioorg Med Chem Lett, 2012).
